Measured values: PubChem BioAssay AID1963860 (Molecular Pharmacology Branch, DTP, NCI, 2024)

Tested on: CN0375-F725-PDC KRAS spheroid viability
Test: Anticancer human tumor CN0375-F725-PDC patient-derived colon carcinoma cell line growth inhibition [KRAS2]
Settings: spheroids with HUVEC and MSC; for IC50: curve of first compound; for viability, T/C: stronger effect = lower value
Method in brief: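 KRAS-mutant tumor cells were grown as spheroids with HUVEC endothelial cells and human MSCs as stroma. Targeted agents were tested alone and with KRAS pathway inhibitors. Doses started at or near clinical Cmax, or 10 microM, descending half-log.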

[1] = second compound 0.1 µM, first compound 0.0316 µM
[2] = second compound 0.1 µM, first compound 0.1 µM
[3] = second compound 0.1 µM, first compound 0.316 µM
[4] = second compound 0.1 µM, first compound 1 µM
[5] = second compound 0.1 µM, first compound 3.16 µM
[6] = second compound 0.316 µM, first compound 0.0316 µM
[7] = second compound 0.316 µM, first compound 0.1 µM
[8] = second compound 0.316 µM, first compound 0.316 µM
[9] = second compound 0.316 µM, first compound 1 µM
[10] = second compound 0.316 µM, first compound 3.16 µM
[11] = second compound 1 µM, first compound 0.0316 µM
[12] = second compound 1 µM, first compound 0.1 µM
[13] = second compound 1 µM, first compound 0.316 µM
[14] = second compound 1 µM, first compound 1 µM
[15] = second compound 1 µM, first compound 3.16 µM
[16] = second compound 3.16 µM, first compound 0.0316 µM
[17] = second compound 3.16 µM, first compound 0.1 µM
[18] = second compound 3.16 µM, first compound 0.316 µM
[19] = second compound 3.16 µM, first compound 1 µM
[20] = second compound 3.16 µM, first compound 3.16 µM
[21] = second compound 10 µM, first compound 0.0316 µM
[22] = second compound 10 µM, first compound 0.1 µM
[23] = second compound 10 µM, first compound 0.316 µM
[24] = second compound 10 µM, first compound 1 µM
[25] = second compound 10 µM, first compound 3.16 µM
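Further: spheroids exposed to agents for 7 days.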

| Compound | IC50 (second compound 0.1 µM) [µM] | IC50 (second compound 0.316 µM) [µM] | IC50 (second compound 1 µM) [µM] | IC50 (second compound 3.16 µM) [µM] | IC50 (second compound 10 µM) [µM] | viability, T/C [1] [%] | viability, T/C [2] [%] | viability, T/C [3] [%] | viability, T/C [4] [%] | viability, T/C [5] [%] | viability, T/C [6] [%] | viability, T/C [7] [%] | viability, T/C [8] [%] | viability, T/C [9] [%] | viability, T/C [10] [%] | viability, T/C [11] [%] | viability, T/C [12] [%] | viability, T/C [13] [%] | viability, T/C [14] [%] | viability, T/C [15] [%] | further results |
| --- | --- | --- | --- | --- | --- | --- | --- | --- | --- | --- | --- | --- | --- | --- | --- | --- | --- | --- | --- | --- | --- |
| CC1COCCN1c1cc(-c2ccnn2C)c2ccnc(-c3ccn[nH]3)c2n1 (stereo not given) + CC1OCC2(CCN(c3cnc(Sc4ccnc(N)c4Cl)c(N)n3)CC2)C1N | > 3.16 | > 3.16 | > 3.16 | 1.76 | 0.614 | 91.7 | 84.1 | 77.1 | 67.5 | 56.2 | 92.8 | 74.3 | 72.9 | 65.1 | 51.3 | 82.7 | 73.3 | 70.7 | 62.1 | 48.6 | viability, T/C (second compound 0.1 µM, first compound 0.01 µM): 107%; viability, T/C (second compound 0.316 µM, first compound 0.01 µM): 90.7%; viability, T/C (second compound 1 µM, first compound 0.01 µM): 88.2%; viability, T/C (second compound 3.16 µM, first compound 0.01 µM): 81.4%; viability, T/C [16]: 76.8%; viability, T/C [17]: 68.3%; viability, T/C [18]: 59.3%; viability, T/C [19]: 54.2%; viability, T/C [20]: 46.4%; viability, T/C (second compound 10 µM, first compound 0.01 µM): 69.7%; viability, T/C [21]: 74.8%; viability, T/C [22]: 62.5%; viability, T/C [23]: 53.2%; viability, T/C [24]: 49.2%; viability, T/C [25]: 39.6% |
| CCNC(=O)CC1N=C(c2ccc(Cl)cc2)c2cc(OC)ccc2-n2c(C)nnc21 (stereo not given) + CC1OCC2(CCN(c3cnc(Sc4ccnc(N)c4Cl)c(N)n3)CC2)C1N | 7.51 | 4.63 | 3.69 | 2.61 | 1.46 | 92.8 | 88.3 | 79.4 | 72.6 | 60.8 | 88 | 78.9 | 68.5 | 69.7 | 58.8 | 85.2 | 78.2 | 70.5 | 66.5 | 51.6 | viability, T/C (second compound 0.1 µM, first compound 10 µM): 46.1%; viability, T/C (second compound 0.316 µM, first compound 10 µM): 37.3%; viability, T/C (second compound 1 µM, first compound 10 µM): 37%; viability, T/C [16]: 79.4%; viability, T/C [17]: 73.6%; viability, T/C [18]: 62.2%; viability, T/C [19]: 61.9%; viability, T/C [20]: 48.3%; viability, T/C (second compound 3.16 µM, first compound 10 µM): 36.8%; viability, T/C [21]: 72.3%; viability, T/C [22]: 73.8%; viability, T/C [23]: 60.7%; viability, T/C [24]: 53%; viability, T/C [25]: 45%; viability, T/C (second compound 10 µM, first compound 10 µM): 36.9% |
